The source of these data is patent US20120149700A1, “2-CYANOPHENYL FUSED HETEROCYCLIC COMPOUNDS, AND COMPOSTIONS AND USES THEREOF” (priority 2007, published 2012).

One assay has as its target T1, P2X2/3 (Homo sapiens, UniProt P56373+Q9UBL9).
T1 construct: expressed in transfected cells; host or cells: cell line stably expressing P2X2, stably transfected with P2X3 (e.g. HEK293 or 1321N1)
T1 sequence (Q9UBL9 1-471): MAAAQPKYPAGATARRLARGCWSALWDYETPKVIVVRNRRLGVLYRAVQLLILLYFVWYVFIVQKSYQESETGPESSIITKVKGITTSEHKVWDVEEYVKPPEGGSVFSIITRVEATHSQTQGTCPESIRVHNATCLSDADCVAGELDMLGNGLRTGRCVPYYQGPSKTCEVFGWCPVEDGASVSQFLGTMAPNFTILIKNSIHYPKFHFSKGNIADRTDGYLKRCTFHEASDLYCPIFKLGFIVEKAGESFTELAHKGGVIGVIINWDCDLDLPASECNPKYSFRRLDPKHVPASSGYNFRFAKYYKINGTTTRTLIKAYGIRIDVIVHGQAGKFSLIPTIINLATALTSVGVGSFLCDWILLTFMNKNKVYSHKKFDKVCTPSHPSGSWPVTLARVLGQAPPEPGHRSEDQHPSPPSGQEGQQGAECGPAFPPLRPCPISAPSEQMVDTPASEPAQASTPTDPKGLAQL
T1 sequence (P56373 1-397): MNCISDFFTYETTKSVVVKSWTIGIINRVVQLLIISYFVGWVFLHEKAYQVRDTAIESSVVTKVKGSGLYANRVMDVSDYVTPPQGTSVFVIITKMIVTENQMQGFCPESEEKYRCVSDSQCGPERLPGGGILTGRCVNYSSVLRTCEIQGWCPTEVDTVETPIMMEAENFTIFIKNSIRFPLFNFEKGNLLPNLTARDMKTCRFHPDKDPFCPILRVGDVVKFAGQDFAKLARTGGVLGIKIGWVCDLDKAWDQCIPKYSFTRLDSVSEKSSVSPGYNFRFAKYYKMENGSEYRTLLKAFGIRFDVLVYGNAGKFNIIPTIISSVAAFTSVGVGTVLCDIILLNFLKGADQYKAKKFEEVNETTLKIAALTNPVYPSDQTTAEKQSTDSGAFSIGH
The assay is described as follows: Calcium uptake assay (P2X antagonist assay, inhibition of agonist-induced calcium influx), P2X2/3. Format: cell-based. The settings on record: inhibition of agonist-induced calcium influx in cells expressing the receptor. From the text:
(§1) The human P2X2/3 chimera clone is created as described by Neelands et al, and then cloned into an expression vector as above. Receptors are expressed in cells (e.g., HEK293 or 1321N1 (obtained from the ECACC)) via transient transfection using standard lipid mediated transfection, or by creation of stable transfectants for each receptor. For expression of the P2X2/3 heteromeric receptor, the P2X3 expression vector is stably transfected into a cell line already stably expressing P2X2. P2X2/3 heteromer function is isolated using pharmacological methods. Cell lines are maintained in DMEM+5% Glutamax, the appropriate level of selective antibiotic, and 10% heat inactivated FBS.
(§2) Functional activity of compounds at the P2X receptor is determined by measuring their ability to inhibit agonist-induced calcium influx. Compounds are tested for antagonist activity against the P2X2/3 chimera, the P2X3 homomer, or the P2X2/3 heteromer. At the start of each screening day, the agonist EC50 is determined. Compound % inhibition or IC50s are subsequently determined using a pre-determined agonist concentration (EC50-90 depending on cell line) as a stimulus. The agonists used are αβMeATP, ATP, or other ATP analogs. Compounds may be tested at concentrations ranging from 1 pM to 10 μM.
(§3) To test for antagonist activity, cells expressing the appropriate receptor are seeded onto 96 or 384 well plates 18-24 hours prior to assay. […] Plates are incubated at 37° C. and then equilibrated at room temperature. Antagonism of agonist-induced calcium influx is measured using a fluorescent imaging plate reader (e.g. FLIPR^TETRA, Molecular Devices, Sunnyvale, Calif.). The assay comprises two stages: a pre-treatment phase followed by a treatment phase. Compounds may be tested as follows: For the pre-treatment phase, 50 μL of 3× concentration of test compound in HBSS is added to cells containing 100 μL of dye loading media to achieve a final concentration of 1× test compound. For the treatment phase, at a set interval after pre-treatment (1-30 minutes), 50 μl, of 1× test compound plus 4× agonist solution is added, resulting in a final concentration of 1× compound and 1× agonist. […] Responses are measured as (peak fluorescence after agonist addition) minus (baseline fluorescence prior to treatment). Percent inhibition is calculated as follows: […]
(§4) IC50 values are determined by analyzing dose response data in a 4 parameter logistic fit using GraphPad Prizm.

Another assay has as its target T2, P2X3 (Homo sapiens, UniProt P56373).
T2 construct: expressed in transfected cells; host or cells: e.g. HEK293 or 1321N1
T2 sequence (P56373 1-397): T1 sequence (P56373 1-397)
Briefly: Calcium uptake assay (P2X antagonist assay, inhibition of agonist-induced calcium influx), P2X3. The format is cell-based. To be noted: inhibition of agonist-induced calcium influx in cells expressing the receptor.
Excerpt: as §1, §2, §3, §4

As to `N#Cc1cc(Cl)ccc1N1CCc2ncnc(N[C@H](CO)c3ccc(C(F)F)nc3)c2C1` [Compound 72, 5-Chloro-2-[4-[(S)-1-(6-difluoromethyl-pyridin-3-yl)-2-hydroxy-ethylamino]-7,8-dihydro-5H-pyrido[4,3-d]pyrimidin-6-yl]-benzonitrile], the IC50 on P2X2/3 stood at 404 nM; at P2X3 it was 16 nM.

On to `CN(C)c1ccc(CNc2ncnc3c2CN(c2ccc(Cl)cc2C#N)CC3)cn1` [Compound 12, 5-Chloro-2-(4-((6-(dimethylamino)pyridin-3-yl)methylamino)-7,8-dihydropyrido[4,3-d]pyrimidin-6(5H)-yl)benzonitrile], for which the IC50 amounted to 1190 nM on P2X2/3 and 628 nM at P2X3.

Take `Cc1ccc(N2CCc3ncnc(NCc4ccc5cc[nH]c5c4)c3C2)c(C#N)c1` [Compound 81, 2-(4-((1H-Indol-6-yl)methylamino)-7,8-dihydropyrido[4,3-d]pyrimidin-6(5H)-yl)-5-methylbenzonitrile]: the IC50 on P2X2/3 worked out at 2160 nM; on P2X3, 423 nM.

Take `Cc1ccc(N2CCc3ncnc(N[C@H](CCO)c4ccc(C(F)F)nc4)c3C2)c(C#N)c1` [Compound 22, 2-{4-[(R)-1-(6-Difluoromethyl-pyridin-3-yl)-3-hydroxy-propylamino]-7,8-dihydro-5H-pyrido[4,3-d]pyrimidin-6-yl}-5-methyl-benzonitrile]: the IC50 was determined as 43 nM on P2X2/3 and 13 nM on P2X3.

Regarding `Cc1ccc(CNc2ncnc3c2CN(c2ccc(Cl)cc2C#N)CC3)cc1S(C)(=O)=O` [Compound 76, 5-Chloro-2-[4-(3-methanesulfonyl-4-methyl-benzylamino)-7,8-dihydro-5H-pyrido[4,3-d]pyrimidin-6-yl]-benzonitrile], the IC50 at P2X2/3 stood at 241 nM; at P2X3 it was 40 nM.

As to `CC(=O)OCC[C@@H](Nc1ncnc2c1CN(c1ccc(C)cc1C#N)CC2)c1ccc(C(F)(F)F)nc1` [Compound 77, Acetic acid (R)-3-[6-(2-cyano-4-methyl-phenyl)-5,6,7,8-tetrahydro-pyrido[4,3-d]pyrimidin-4-ylamino]-3-(6-trifluoromethyl-pyridin-3-yl)-propyl ester], the IC50 at P2X2/3 was 536 nM; on P2X3, 130 nM.

Turning to `N#Cc1cc(Cl)ccc1N1CCc2ncnc(NCc3ccc(C(F)(F)F)nc3)c2C1` [Compound 4, 5-Chloro-2-{4-[(6-trifluoromethyl-pyridin-3-ylmethyl)-amino]-7,8-dihydro-5H-pyrido[4,3-d]pyrimidin-6-yl}-benzonitrile], the results for the IC50 at P2X2/3 and on P2X3 were 842 nM and 37 nM, respectively.

For the compound `N#Cc1cc(Cl)ccc1N1CCc2ncnc(N[C@H](CO)c3ccc(C(F)(F)F)nc3)c2C1` [Compound 47, 5-Chloro-2-{4-[(S)-2-hydroxy-1-(6-trifluoromethyl-pyridin-3-yl)-ethylamino]-7,8-dihydro-5H-pyrido[4,3-d]pyrimidin-6-yl}-benzonitrile], the IC50 on P2X2/3 was found to be 671 nM; at P2X3, 54 nM.

In the case of `N#Cc1cc(F)ccc1N1CCc2ncnc(NCc3ccc(C(F)(F)F)nc3)c2C1` [Compound 9, 5-Fluoro-2-{4-[(6-trifluoromethyl-pyridin-3-ylmethyl)-amino]-7,8-dihydro-5H-pyrido[4,3-d]pyrimidin-6-yl}-benzonitrile], the IC50 at P2X2/3 was 11400 nM; at P2X3, 85 nM.

In the case of `Cc1ccc(N2CCc3ncnc(NCc4ccc(Cl)c(S(C)(=O)=O)c4)c3C2)c(C#N)c1` [Compound 71, 2-[4-(4-Chloro-3-methanesulfonyl-benzylamino)-7,8-dihydro-5H-pyrido[4,3-d]pyrimidin-6-yl]-5-methyl-benzonitrile], the IC50 was determined as 120 nM at P2X2/3 and 37 nM at P2X3.

On to `Cc1nc(C(F)(F)F)ccc1CNc1ncnc2c1CN(c1ccc(Cl)cc1C#N)CC2` [Compound 11, 5-Chloro-2-(4-((2-methyl-6-(trifluoromethyl)pyridin-3-yl)methylamino)-7,8-dihydropyrido[4,3-d]pyrimidin-6(5H)-yl)benzonitrile], for which the IC50 was more than 10000 nM at P2X2/3 and 187 nM at P2X3.

In the case of `Cc1ccc(N2CCc3ncnc(NCc4ccc5cccnc5c4)c3C2)c(C#N)c1` [Compound 92, 5-Methyl-2-(4-(quinolin-7-ylmethylamino)-7,8-dihydropyrido[4,3-d]pyrimidin-6(5H)-yl)benzonitrile], the results for the IC50 at P2X2/3 and on P2X3 were 24 nM and 20 nM, respectively.

On to `Cc1ccc(N2CCc3ncnc(NCc4ncc(Cl)cc4Cl)c3C2)c(C#N)c1` [Compound 32, 2-{-4-[(3,5-Dichloro-pyridin-2-ylmethyl)-amino]-7,8-dihydro-5H-pyrido[4,3-d]pyrimidin-6-yl}-5-methyl-benzonitrile], for which the values for the IC50 on P2X2/3 and at P2X3 were 50 nM and 41 nM, respectively.

Consider `Cc1ccc(N2CCc3ncnc(NCc4ccc(Cl)nc4)c3C2)c(C#N)c1` [Compound 27, 2-{4-[(6-Chloro-pyridin-3-ylmethyl)-amino]-7,8-dihydro-5H-pyrido[4,3-d]pyrimidin-6-yl}-5-methyl-benzonitrile], for which the results for the IC50 on P2X2/3 and at P2X3 were 25 nM and 11 nM, respectively.

As to `Cc1ccc(N2CCc3ncnc(NCc4ccc5nccnc5c4)c3C2)c(C#N)c1` [Compound 79, 5-Methyl-2-(4-(quinoxalin-6-ylmethylamino)-7,8-dihydropyrido[4,3-d]pyrimidin-6(5H)-yl)benzonitrile], the IC50 on P2X2/3 is 67 nM; on P2X3 it was 34 nM.

Take `CSc1cc(CNc2ncnc3c2CN(c2ccc(C)cc2C#N)CC3)ccc1C` [Compound 49, 5-Methyl-2-[4-(4-methyl-3-methylsulfanyl-benzylamino)-7,8-dihydro-5H-pyrido[4,3-d]pyrimidin-6-yl]-benzonitrile]: the IC50 came out at 925 nM at P2X2/3 and 474 nM at P2X3.

As to `N#Cc1cc(Cl)ccc1N1CCc2ncnc(N[C@H](CCO)c3ccc(C(F)F)nc3)c2C1` [Compound 62, 5-Chloro-2-{4-[(R)-1-(6-difluoromethyl-pyridin-3-yl)-3-hydroxy-propylamino]-7,8-dihydro-5H-pyrido[4,3-d]pyrimidin-6-yl}-benzonitrile], the IC50 on P2X2/3 turned out to be 273 nM; on P2X3 it was 32 nM.

Turning to `COc1ccc(CNc2ncnc3c2CN(c2ccc(Br)cc2C#N)CC3)cn1` [Compound 14, 5-Bromo-2-(4-((6-methoxypyridin-3-yl)methylamino)-7,8-dihydropyrido[4,3-d]pyrimidin-6(5H)-yl)benzonitrile], the figures for the IC50 at P2X2/3 and at P2X3 were 325 nM and 78 nM, respectively.

On to `COc1ccc(CNc2ncnc3c2CN(c2ccc(Cl)cc2C#N)CC3)cn1` [Compound 13, 5-Chloro-2-(4-((6-methoxypyridin-3-yl)methylamino)-7,8-dihydropyrido[4,3-d]pyrimidin-6(5H)-yl)benzonitrile], for which the values for the IC50 at P2X2/3 and at P2X3 were 169 nM and 59 nM, respectively.

`Cc1ccc(N2CCc3ncnc(NCc4ccc5ccccc5n4)c3C2)c(C#N)c1` [Compound 80, 5-Methyl-2-(4-(quinolin-2-ylmethylamino)-7,8-dihydropyrido[4,3-d]pyrimidin-6(5H)-yl)benzonitrile]: the results for the IC50 at P2X2/3 and on P2X3 were 263 nM and 156 nM, respectively.

Broadly, the IC50 is the concentration needed to halve the response being measured.
